# From PMC6508953 (Cell chemical biology, 2017)
# How the values were obtained:
# Bax [1] = experiment: Bax:membrane FRET; format: biochemical, human; conditions: 10 μM preincubated with 20 nM Alexa568-Bax, 20 nM BIM, DiD liposomes
# Bax [2] = molecular target: T1, Bax (Homo sapiens, UniProt Q07812); experiment: DSS chemical crosslinking of Bax oligomers in liposomes, immunoblot; format: biochemical; conditions: for large oligomers of Bax (DSS crosslinking): high concentrations, compared with positive control Bcl-XL
# Bax [3] = molecular target: T1, Bax; conditions: not told
# Bax [4] = molecular target: T1, Bax; experiment: tBid/Bax-mediated liposome permeabilization; conditions: for IC50: read-out: IC50, concentration of compound required to inhibit 50% of the maximal dye release, liposomes, tBid and Bax, ANTS/DPX release
# HCT-116 cells [5] = experiment: Immunofluorescence for activated Bax; format: cell-based, human; conditions: 10 μM for 3 hr before ActD for 24 hr, HCT-116 WT
# Bax [6] = experiment: Bax:Bax FRET oligomerization assay; format: biochemical, human; conditions: 10 μM, liposomes and tBid
# Bax [7] = format: biochemical; conditions: 40 μM
# Bax [8] = molecular target: T1, Bax; experiment: Bax binding to mitochondria by differential centrifugation; format: biochemical; conditions: preincubation of Bax or mitochondria with compound
# HCT-116 cells [9] = conditions: 5 or 10 μM pretreatment; WT, Bax-/- and Bak-/- HCT-116 cells; actinomycin D
# [10] = system: primary embryonic mouse brain cortical neurons; experiment: Glutamate excitotoxicity, lactate dehydrogenase release; format: cell-based
# T1 sequence (Q07812 whole entry): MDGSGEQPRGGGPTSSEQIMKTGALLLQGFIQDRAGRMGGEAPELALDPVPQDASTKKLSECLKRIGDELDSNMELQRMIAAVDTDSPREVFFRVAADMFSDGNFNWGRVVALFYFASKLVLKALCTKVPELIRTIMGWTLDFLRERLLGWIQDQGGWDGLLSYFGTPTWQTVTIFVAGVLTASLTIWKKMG
Bax binding to membranes by FRET (Bax [1]),SMILES,protection against ActD treatment (BMK cells; sub-toxic doses),large oligomers of Bax (DSS crosslinking) (Bax [2]),inhibition of heat-activated Bax-mediated liposome permeabilization (Bax [3]),IC50 (Bax [4]) [nM],Bax-6A7 positivity (exposure of N-terminal Bax epitope) after ActD (HCT-116 cells [5]),cytochrome c release from mitochondria in cells after ActD (HCT-116 cells [5]),"survival and growth after STS treatment and replating (BMK cells; 5 μM compound, BMK cells, staurosporine)","survival and growth after ActD treatment and replating (BMK cells; 5 or 10 μM pretreatment, WT, Bax-/- and Bak-/- BMK cells, 75 nM ActD)",FRET between DAC-Bax-134C and NBD-Bax-126C (Bax oligomerization) (Bax [6]),Bax dimerization (DSS crosslinking) (Bax [2]; highest concentration tested),disulfide crosslinks of double-cysteine Bax L59C/L76C and L59C/M79C (Bax [7]),disulfide crosslinking of Bax-L63C with Bax-A112C (Bax [7]; IVT and TNT systems),Bax binding to mitochondria (Bax [8]),survival and growth after ActD treatment and replating (HCT-116 cells [9]),"neuronal damage after glutamate excitotoxicity (LDH release) ([10]; 5 μM added directly after 30 min of 25 or 100 μM glutamate, read after 24 hr)","neuronal damage by compound alone ([10]; 5 μM, 24 hr, no glutamate)","concentration-dependent inhibition of liposome permeabilization by tBid and Bax (Bax [4]; individual assays, normalized to reactions without compound)"
did not inhibit Bax binding to membranes,NCCCN(Cc1ccc(Br)cc1)C(=O)[C@H](Cc1ccccc1)NC(=O)c1ccccc1 [DAN004],did not confer protection against ActD treatment,inhibited large oligomers of Bax to a similar extent as the positive control Bcl-XL,inhibited heat-activated Bax-mediated liposome permeabilization equivalently,~700,,,,,,,,,,,,,
,COCCOCOc1ccc2c(c1)O[C@H](CN)[C@H]2N(Cc1ccc(Br)cc1)C(=O)[C@H](Cc1ccccc1)NC(=O)c1ccccc1 [MSN-125],,inhibited large oligomers of Bax to a similar extent as the positive control Bcl-XL,,~4000,prevented,prevented,conferred long-term survival and growth,conferred survival,reduced FRET,inhibited Bax dimerization to a limited extent,not inhibited by MSN-125,not inhibited by MSN-125,did not inhibit Bax binding to mitochondria,conferred survival,substantially reduced neuronal damage,did not result in neuronal damage,inhibited dye release from liposomes in a concentration-dependent fashion
